Measured values taken from patent US11326174B2, “Engineered yeast strains enabling anaerobic xylose fermentation decoupled from microbial growth” (Wisconsin Alumni Research Foundation, priority 2018, dated 2022).
“Also recorded” adds a separate entry of the source.

Legend:
tpk2^as = target: T1, tpk2^as (Saccharomyces cerevisiae, UniProt P06245, M147G); assay: Inhibition of analog-sensitive PKA in Y133 tpk1Δtpk3Δtpk2^as during anaerobic growth on xylose; format: cell-based; conditions: 10 μM 1-NM-PP1 added after 17 hours
T1 construct: tpk2as repair templates were generated by PCR of the whole ORF of tpk2as; endogenous in cells; host or cells: S. cerevisiae Y133 tpk1Δtpk3Δtpk2^as; allele placed at the chromosomal TPK2 locus by CRISPR/Cas9 editing
Source text: Y133 tpk1Δtpk3Δtpk2^as was generated using CRISPR/Cas9-mediated genome editing. TPK1 and TPK3 were deleted in Y133 independently and verified by PCR. sgRNA sequence ([…]) that targeted the location within TPK2 to be replaced was cloned into the pXIPHOS vector using Not1 (GenBank accession MG897154), which contains the constitutive RNR2 promoter driving the Cas9 gene and NatMX resistance gene, using gapped plasmid repair using HiFi DNA Assembly Master Mix from NEB. tpk2as repair templates were generated by PCR of the whole ORF of tpk2as from a strain containing mutants of the TPK genes that are sensitive to the ATP-analogue inhibitor 1-NM-PP1 (TPK1 M164G, TPK2 M147G, TPK3 M165G). Purified repair templates were co-transformed at a 20-fold molar excess with the pXIPHOS-TPK2 sgRNA plasmid into Y133 tpk1Δtpk3Δ strain. Colonies resistant to nourseothricin were restreaked onto YPD two times to remove the plasmid (and were verified to now be sensitive to nourseothricin) and tpk2as presence was verified by sequencing. Y133 tpk1Δtpk3Δtpk2^as was grown in xylose anaerobically for 17 hours at which point 10 μM 1-NM-PP1 or DMSO control was added to the cultures.

PKA = PKA activity assay: in vitro phosphorylation of a PKA substrate by cell lysate; format: biochemical, Saccharomyces cerevisiae; conditions: 50 μM H-89
Description: PKA activity assay. Measurement of PKA activity was performed on lysed cells using the PKA Kinase Activity Assay Kit from ABCAM. Cultures were grown anaerobically in xylose for three doublings (to OD˜0.5), at which 10 mL of cells were collected by centrifugation for 3 minutes at 3000 rpm, in preparation for lysis. Supernatant was removed under anaerobic conditions and the cells were resuspended in 1 mL of SB buffer (1 M sorbitol, 20 mM Tris HCl, pH 7.4) with 300 units of zymolyase (Amsbio) and 10 μL of protease inhibitor cocktail IV (Millipore). Cells were incubated for 10 minutes at 30° C. anaerobically. Cells were collected by […] for 5 minutes at 350×g and washed 1× with SB buffer under anaerobic conditions. Cells were resuspended in 750 μL HLB buffer (10 mM Tris HCl, pH 7.4, 10 mM NaCl, 3 mM MgCl2, 0.3% (vol/vol) NP-40, 10% (vol/vol) glycerol) with 10 μL protease inhibitor cocktail IV and incubated on ice for 10 minutes, anaerobically. […] Lysis was verified using microscopy and total protein abundance was determined using a Bradford assay. […] The reaction was detected using a TECAN Infinite 200 Pro with a wavelength of 450 nm. […] Relative PKA activity was calculated by subtracting […] to remove background, followed by normalization to total protein abundance for each sample. […]

Y128 = assay: Inhibition of growth using hydroxyurea during anaerobic growth on xylose; format: cell-based, Saccharomyces cerevisiae; conditions: 400 mM hydroxyurea added after 17 hours
Description: Inhibition of growth using hydroxyurea. Growth inhibition was performed using 400 mM hydroxyurea, added after 17 hours of anaerobic growth in xylose. Before and after growth inhibition, OD600 as well as sugar and ethanol concentrations were measured as above.

T1 sequence (P06245 whole entry M147G): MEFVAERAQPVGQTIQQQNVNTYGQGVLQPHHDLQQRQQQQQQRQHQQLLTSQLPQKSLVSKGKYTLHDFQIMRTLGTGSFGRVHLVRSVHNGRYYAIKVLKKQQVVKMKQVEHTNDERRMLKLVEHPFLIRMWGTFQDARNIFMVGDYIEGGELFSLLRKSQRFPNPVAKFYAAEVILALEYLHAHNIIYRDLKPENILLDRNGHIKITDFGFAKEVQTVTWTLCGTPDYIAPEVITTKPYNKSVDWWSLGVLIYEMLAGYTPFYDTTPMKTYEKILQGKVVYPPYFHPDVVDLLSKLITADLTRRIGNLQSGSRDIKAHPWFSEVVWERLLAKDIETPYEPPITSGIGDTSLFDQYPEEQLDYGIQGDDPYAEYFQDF

CC(C)(C)n1nc(Cc2cccc3ccccc23)c2c(N)ncnc21 [Strain 1-NM-PP1]
Effect on growth and fermentation during anaerobic xylose utilization (tpk2^as): rapidly inhibited growth and fermentation

O=S(=O)(NCCNC/C=C/c1ccc(Br)cc1)c1cccc2cnccc12 [Strain H-89]
Effect on phosphorylation of a PKA substrate in vitro (PKA; lysate from Y128 grown anaerobically on xylose): blocked | Effect on phosphorylation of a PKA target in vitro (PKA; lysate from Y184 bcy1Δ grown anaerobically on xylose): blocked

NC(=O)NO [hydroxyurea]
Effect on anaerobic xylose utilization (Y128): does not promote anaerobic xylose utilization; also recorded: halted xylose utilization | Effect on growth (OD600) (Y128): inhibits growth
